Legend:
Assay type in all cases: toxicity, cell-based
HEK-293T = assay: Incucyte cell viability with HEK293T; conditions: human, 10 µM, compound concentration 10 uM
U2OS = assay: Incucyte cell viability with U2OS; conditions: human, 10 µM, compound concentration 10 uM
Fibroblast = assay: Incucyte cell viability with human fibroblast; conditions: 10 µM, compound concentration 10 uM
Also: unitless GR value; below 1 slowed growth and below 0 cell loss.

| Compound | Growth Rate (HEK-293T; 6 h, replicate number 1) | Growth Rate (HEK-293T; 6 h, replicate number 2) | Growth Rate (HEK-293T; 12 h, replicate number 1) | Growth Rate (U2OS; 0 h, replicate number 1) | Growth Rate (U2OS; 0 h, replicate number 2) | Growth Rate (U2OS; 6 h, replicate number 1) | Growth Rate (U2OS; 12 h, replicate number 1) | Growth Rate (U2OS; 18 h, replicate number 2) | Growth Rate (U2OS; 24 h, replicate number 2) | Growth Rate (Fibroblast; 0 h, replicate number 2) | Growth Rate (Fibroblast; 6 h, replicate number 1) | Growth Rate (Fibroblast; 12 h, replicate number 2) | Growth Rate (Fibroblast; 18 h, replicate number 1) | Growth Rate (Fibroblast; 24 h, replicate number 1) | Growth Rate (Fibroblast; 24 h, replicate number 2) | Growth Rate (HEK-293T; 12 h, replicate number 2) | Growth Rate (HEK-293T; 18 h, replicate number 1) | Growth Rate (HEK-293T; 18 h, replicate number 2) | Growth Rate (HEK-293T; 24 h, replicate number 1) | Growth Rate (Fibroblast; 18 h, replicate number 2) | other results |
| --- | --- | --- | --- | --- | --- | --- | --- | --- | --- | --- | --- | --- | --- | --- | --- | --- | --- | --- | --- | --- | --- |
| CN1[C@@H](CC(=O)c2ccccc2)CCC[C@H]1C[C@H](O)c1ccccc1.Cl [LOBELINE HYDROCHLORIDE] | 0.43 | 0.24 | 0.62 | 0.28 | -0.67 | 0.83 | 0.92 | 1 | 0.87 | -0.71 | 0.48 | 0.64 | 0.91 | 0.58 | 0.83 | – | – | – | – | – | Growth Rate (Fibroblast; 6 h, replicate number 2): 0.28 |
| CC(C)N1CCN(Cc2cnc(-c3cc(-c4cccc5[nH]ccc45)cc4[nH]ncc34)o2)CC1 [NEMIRALISIB] | -0.37 | -0.48 | -0.09 | -0.99 | 0.94 | – | 0.83 | 0.64 | 0.6 | – | -0.06 | 0.83 | 0.27 | 0.3 | 0.85 | -0.01 | 0.26 | 0.15 | 0.34 | 0.75 | Growth Rate (HEK-293T; 24 h, replicate number 2): 0.32; Growth Rate (U2OS; 6 h, replicate number 2): 0.36; Growth Rate (U2OS; 12 h, replicate number 2): 0.64; Growth Rate (Fibroblast; 12 h, replicate number 1): 0.04 |
| CO[C@@H](C)CN1CC[C@]2(C)c3cc(O)ccc3C[C@H]1C2(C)C.Cl | – | – | – | 0.91 | – | 0.69 | 0.82 | – | – | -0.8 | 0.93 | 0.89 | 1 | – | – | – | – | – | – | – | Growth Rate (HEK-293T; 0 h, replicate number 2): 0.15; Growth Rate (U2OS; 6 h, replicate number 2): 0.47; Growth Rate (Fibroblast; 0 h, replicate number 1): -1 |
| NS(=O)(=O)c1cncc(-c2nc(NCc3ccccn3)c3c(-c4ccccc4)cccc3n2)c1 [BMS-919373] | 0.01 | 0.33 | 0.64 | 0.72 | -0.7 | – | 0.98 | 0.59 | 0.63 | -0.92 | – | – | 0.34 | – | – | 0.24 | 0.69 | 0.22 | 1 | – | Growth Rate (HEK-293T; 24 h, replicate number 2): 0.26; Growth Rate (U2OS; 12 h, replicate number 2): 0.71; Growth Rate (Fibroblast; 12 h, replicate number 1): -1 |
| O=C(CCCCCCc1ccccc1)c1ncc(-c2ccccn2)o1 | 0.7 | – | 0.79 | 0.55 | – | 0.84 | 0.58 | – | – | – | 0.4 | 0.63 | 0.96 | 0.93 | 0.84 | 0.88 | 0.76 | 0.88 | 0.8 | 0.85 | Growth Rate (HEK-293T; 24 h, replicate number 2): 0.97; Growth Rate (U2OS; 24 h, replicate number 1): 0.87; Growth Rate (Fibroblast; 0 h, replicate number 1): -0.98; Growth Rate (Fibroblast; 6 h, replicate number 2): 0.12 |
| [2H]C([2H])([2H])NC(=O)c1nnc(NC(=O)C2CC2)cc1Nc1cccc(-c2ncn(C)n2)c1OC [DEUCRAVACITINIB] | 0.66 | 0.51 | 0.82 | 0.39 | – | 0.29 | 0.68 | 0.71 | 0.74 | 0 | – | – | – | – | 0.9 | 0.56 | 0.78 | 0.68 | 0.85 | 0.85 | Growth Rate (HEK-293T; 0 h, replicate number 2): 0.09; Growth Rate (HEK-293T; 24 h, replicate number 2): 0.76; Growth Rate (U2OS; 6 h, replicate number 2): 0.63; Growth Rate (U2OS; 12 h, replicate number 2): 0.76; Growth Rate (U2OS; 18 h, replicate number 1): 0.89; Growth Rate (U2OS; 24 h, replicate number 1): 0.97; Growth Rate (Fibroblast; 0 h, replicate number 1): 0.51 |
| CCCCCN1C(=O)C2(COc3cc4c(cc32)OCO4)c2ccccc21 (centres undefined) | 0.51 | 0.92 | – | -0.63 | -1 | – | – | 0.98 | 0.88 | – | – | 0.76 | -0.52 | 0.82 | 0.74 | – | – | – | – | 0.91 | Growth Rate (HEK-293T; 0 h, replicate number 2): 0.62; Growth Rate (U2OS; 6 h, replicate number 2): 0.76; Growth Rate (U2OS; 12 h, replicate number 2): 0.8; Growth Rate (Fibroblast; 6 h, replicate number 2): -0.97 |
| COc1ccc(CC(=O)NCc2ccccc2-c2ccccc2C(=O)NCc2ccc(F)cc2F)cc1 | – | – | – | -0.79 | -0.96 | – | – | – | – | -0.36 | – | – | 0.19 | – | 0.91 | – | – | – | – | 0.88 | Growth Rate (HEK-293T; 0 h, replicate number 1): 0.52; Growth Rate (U2OS; 24 h, replicate number 1): 0.89 |
